Results on eleven compounds are retold here after US6136831A, “Pyrazole derivatives and COX inhibitors containing them” (Grelan Pharmaceutical Co., Ltd., priority 1997, dated 2000).

Experiment [1] concerns rat adjuvant-induced arthritis. Put plainly: Inhibitory Action on Adjuvant Arthritis (1) (Assay Example 2). It is filed as in vivo, male Fisher rats. As to conditions: oral 5 mg/kg.
Procedure: Dry Mycobacterium butyricum killed organisms (Difco) were suspended in liquid paraffin to make the concentration 1% and the resulting suspension used as an adjuvant. The adjuvant (50 μl) was subplantarly injected to the right hind paw of male Fisher rats (5 to 6 animals per group) to raise arthritis. Each test compound was suspended in a 0.5% aqueous sodium carboxymethylcellulose (CMC-Na) solution and orally administered to the rats at a dose of 5 mg/kg on days 0, 3, 7, 10, 14, 17 and 20 (7 times in total) after the arthritis induction. On the 21st disease day the rats were measured for their body weight and the edema of their right and left hind paws. Simultaneously, systemic inflammatory states were scored. In addition, each of their spleen and thymus was taken out by excision to measure their wet weight and their relative weight per 100 g body weight was calculated.
For experiment [2], the target named is T1, COX-2 (Ovis aries, UniProt P79208).
T1 construct: purchased Cayman Chemical Co
T1 sequence (P79208 17-603): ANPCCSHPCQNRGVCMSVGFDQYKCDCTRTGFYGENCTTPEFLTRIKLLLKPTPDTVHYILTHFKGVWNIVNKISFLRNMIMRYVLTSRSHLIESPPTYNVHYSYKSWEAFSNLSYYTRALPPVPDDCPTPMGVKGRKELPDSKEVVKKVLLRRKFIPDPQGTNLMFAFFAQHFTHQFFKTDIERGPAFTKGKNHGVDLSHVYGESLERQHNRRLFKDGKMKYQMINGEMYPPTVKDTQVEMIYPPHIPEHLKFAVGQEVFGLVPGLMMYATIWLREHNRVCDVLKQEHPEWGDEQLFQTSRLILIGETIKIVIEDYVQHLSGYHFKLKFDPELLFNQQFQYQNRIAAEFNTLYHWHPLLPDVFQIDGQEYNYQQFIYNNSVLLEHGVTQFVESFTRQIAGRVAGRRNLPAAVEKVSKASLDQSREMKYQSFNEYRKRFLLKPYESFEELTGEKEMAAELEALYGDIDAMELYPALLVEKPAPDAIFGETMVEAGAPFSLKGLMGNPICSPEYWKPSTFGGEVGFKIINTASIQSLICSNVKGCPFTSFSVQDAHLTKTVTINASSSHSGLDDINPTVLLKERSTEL
Kind of experiment: Inhibitory Activity on COX-2 (Assay Example 5). It is filed as biochemical. The conditions noted are these: Table 4; for IC50: read-out: COX Inhibiting Activity IC50, COX-2.

The target of experiment [3] is T2, COX-1 (Ovis aries, UniProt P05979).
T2 construct: purchased Cayman Chemical Co
T2 sequence (P05979 25-600): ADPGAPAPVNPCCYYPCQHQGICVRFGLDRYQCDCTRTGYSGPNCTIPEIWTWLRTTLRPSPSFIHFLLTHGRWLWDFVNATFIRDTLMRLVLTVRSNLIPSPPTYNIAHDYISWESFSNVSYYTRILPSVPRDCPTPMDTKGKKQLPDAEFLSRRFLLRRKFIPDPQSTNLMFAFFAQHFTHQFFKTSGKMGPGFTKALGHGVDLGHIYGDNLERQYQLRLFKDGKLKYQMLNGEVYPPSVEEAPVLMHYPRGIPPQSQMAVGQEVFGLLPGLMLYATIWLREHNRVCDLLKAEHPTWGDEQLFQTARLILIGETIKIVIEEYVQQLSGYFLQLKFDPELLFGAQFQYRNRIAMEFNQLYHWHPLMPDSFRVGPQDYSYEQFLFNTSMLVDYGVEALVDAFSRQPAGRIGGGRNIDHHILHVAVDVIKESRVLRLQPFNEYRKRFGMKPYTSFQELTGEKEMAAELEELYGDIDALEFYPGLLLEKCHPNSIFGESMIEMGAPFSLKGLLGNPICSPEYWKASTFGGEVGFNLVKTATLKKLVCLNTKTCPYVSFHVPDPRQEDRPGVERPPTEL
Kind of experiment: Inhibitory Activity on COX-1 (Assay Example 5). It is filed as biochemical. As to conditions: Table 4; read-out: COX Inhibiting Activity IC50, COX-1.

[4] abbreviates: 7 times, relative weight per 100 g body weight, day 21.
The mark [5] stands for this setting: days 0, 3, 7, 10, 14, 17, 20, measured day 21.

Regarding `CS(=O)(=O)c1ccc(-n2nc(C(F)(F)F)cc2-c2nc3cc(F)ccc3s2)cc1` [Example 4, 5-Fluoro-2-[1-(4-methylsulfonylphenyl)-3-trifluoromethyl-1H-pyrazol-5-yl]benzothiazole], in experiment [1] (setting [4]), the “% Inhibition against Change in Relative Weight, Spleen” value was found to be 2.9% and the “% Inhibition against Change in Relative Weight, Thymus” value amounted to 148.9%. For the same compound, in experiment [1] (setting [5]), the “% Inhibition against Reduction of Gain in Body Weight” value was 78.7%, the “Edema Inhibition (%) Left Hind Paw (Non-inflamed Paw)” value was determined as 91% and the “Edema Inhibition (%) Right Hind Paw (Inflamed Paw)” value was found to be 83%. Also, the “Inflammation Score Inhibition (%)” value in experiment [1] (days 0, 3, 7, 10, 14, 17, 20, scored day 21) came to 100%.
What is called IC50 is the point on the concentration scale where inhibition reaches its midpoint. In the case of `NS(=O)(=O)c1ccc(-n2nc(C(F)(F)F)cc2-c2nc3ccccc3s2)cc1` [Example 14, 4-[5-(Benzothiazol-2-yl)-3-trifluoromethyl-1H-pyrazol-1-yl]-benzenesulfonamide], in experiment [2], the “COX-1/COX-2 (ratio of IC50 values)” value is recorded as above 1786 and the IC50 is 56 nM. Further, in experiment [3], the concentration for half-maximal inhibition (IC50) is above 100000 nM.
For `Cc1ccc2nc(-c3cc(C(F)(F)F)nn3-c3ccc(S(N)(=O)=O)cc3)sc2c1` [Example 16, 4-[5-(6-Methylbenzothiazol-2-yl)-3-trifluoromethyl-1H-pyrazol-5-yl]benzenesulfonamide] the same measures were above 172, 580 nM and above 100000 nM.
On the same counts, the results for `CS(=O)(=O)c1ccc(-n2nc(C(F)(F)F)cc2-c2nc3cccc(F)c3s2)cc1` [Example 17, 7-fluoro-2-[1-(4-methylsulfonylphenyl)-3-trifluoromethyl-1H-pyrazol-5-yl]benzothiazole] are above 625, 160 nM and above 100000 nM.
Turning to `NS(=O)(=O)c1ccc(-n2nc(C(F)F)cc2-c2nc3ccccc3s2)cc1` [Example 21, 4-[5-(Benzothiazol-2-yl)-3-difluoromethyl-1H-pyrazol-1-yl]-benzenesulfonamide], in experiment [2], the “COX-1/COX-2 (ratio of IC50 values)” value was 386 and the IC50 amounted to 57 nM. The IC50 in experiment [3] turned out to be 22000 nM.
On the same counts, the results for `CS(=O)(=O)c1ccc(-n2nc(C(F)F)cc2-c2nc3ccc(F)cc3s2)cc1` [Example 22, 6-Fluoro-2-[1-(4-methylsulfonylphenyl)-3-difluoromethyl-1H-pyrazol-5-yl]benzothiazole] are above 2000, 50 nM and above 100000 nM.
For `NS(=O)(=O)c1ccc(-n2nc(C(F)F)cc2-c2nc3ccc(F)cc3s2)cc1` [Example 23, 4-[5-(6-Fluorobenzothiazol-2-yl)-3-difluoromethyl-1H-pyrazol-1-yl]benzenesulfonamide] the same measures were above 909, 110 nM and above 100000 nM.
On the same counts, the results for `NS(=O)(=O)c1ccc(-n2nc(C(F)F)cc2-c2nc3ccc(Cl)cc3s2)cc1` [Example 24, 4-[5-(6-Chlorobenzothiazol-2-yl)-3-difluoromethyl-1H-pyrazol-1-yl]benzenesulfonamide] are 21, 86 nM and 1800 nM.
Regarding `COc1ccc2nc(-c3cc(C(F)F)nn3-c3ccc(S(N)(=O)=O)cc3)sc2c1` [Example 25, 4-[3-Difluoromethyl-5-(6-methoxybenzothiazol-2-yl)-1H-pyrazol-5-yl]benzenesulfonamide], in experiment [2], the “COX-1/COX-2 (ratio of IC50 values)” value is above 250 and the IC50 was determined as 400 nM. Moreover, the IC50 in experiment [3] is above 100000 nM.
On the same counts, the results for `Cc1ccc2nc(-c3cc(C(F)F)nn3-c3ccc(S(C)(=O)=O)cc3)sc2c1` [Example 26, 6-Methyl-2-[1-(4-methylsulfonylphenyl)-3-difluoromethyl-1H-pyrazol-5-yl]benzothiazole] are above 769, 130 nM and above 100000 nM.
Consider `Cc1ccc2nc(-c3cc(C(F)F)nn3-c3ccc(S(N)(=O)=O)cc3)sc2c1` [Example 27], for which, in experiment [2], the “COX-1/COX-2 (ratio of IC50 values)” value is given as 623 and the IC50 was determined as 53 nM. Further, in experiment [3], the IC50 worked out at 33000 nM.
